Laboratory results reported in patent US11254696B2, “Dianilinopyrimidine compound for inhibiting kinase activity” (Shenzhen Targetrx, Inc., priority 2017, dated 2022).

Legend:
ALK F1174C/V = settings: Crizotinib-resistant mutation; cited from earlier work
ALK G1202R = ALK G1202R (Homo sapiens, UniProt Q9UM73, G1202R); settings: Crizotinib-resistant mutation; cited from earlier work
ALK [WT] = ALK [WT] (Homo sapiens, UniProt Q9UM73); assay: Kinase inhibition assay, ALK [WT]; type: biochemical
Description: (§1) Compound preparation: The test compounds were dissolved in DMSO to make 20 mM stock solutions. The compounds were diluted in DMSO to 0.1 mM (a dilution with 100 times the final concentration) before use, and a 3-fold series gradient dilution with 11 concentrations was made. Dilutions with 4 times of the final concentration were prepared by diluting with buffer when dosing.
(§2) Kinase assay: after preparing the buffer solution, the enzyme was mixed with pre-diluted compounds with different concentrations, and placed at room temperature for 30 minutes in duplicate. The corresponding substrate and ATP were added thereto and reacted at room temperature for 60 minutes (both a negative and a positive control were set). After the reaction, antibody was added for detection, and after incubation at room temperature for 60 minutes, Evnvision detection was carried out, and data was collected. Data was analyzed and fit according to XLfit5 software. IC50 was calculated by the following formula: (IC50=[(ABS test−ABS begin)/(ABS control−ABS begin)]×100).

ALK [L1196M] = ALK [L1196M] (Homo sapiens, UniProt Q9UM73, L1196M); assay: Kinase inhibition assay, ALK [L1196M]; type: biochemical
Description: as §1, §2

BaF3 parental = assay: Cytotoxicity test (CellTiter-Glo), BaF3 parental; type: cell-based; settings: Mus musculus, 72 hours, read-out: IC50(nM) parental (Ba/F3)
Description: (§3) The in vitro anti-proliferative activity of the compounds of the present disclosure against three types of cells that are cultured in vitro was tested by CellTiter-Glo method.
(§4) Cell lines: BaF3 parental; BaF3 [EML4-ALK] (From WuXi PharmaTech) and BaF3 [EMF4-AFK F1196M] (From WuXi PharmaTech); wherein, BaF3 parental was cultured in RPMI1640 medium containing 10 ng/ml IL-3, 10% fetal bovine serum, 100 U/ml penicillin, and 100 μg/ml streptomycin, BaF3 [EMF4-AFK] and BaF3 [EMF4-AFK F1196M] were cultured in RPMI1640 medium containing 10% fetal bovine serum, 100 U/ml penicillin, and 100 μg/ml streptomycin.
(§5) Reagents and materials: RPMI-1640 (GIBCO, Cat. No. A10491-01); fetal bovine serum (GIBCO, Cat. No. 10099141); 0.25% trypsin-EDTA (GIBCO, Cat. No. 25200); penicillin-streptomycin, liquid (GIBCO, Cat. No. 15140-122); DMSO (Sigma, Cat. No. D2650); CellTiter-Glo Test Kit (Promega, Cat. No. G7572), and 96-well plate (Corning, Cat. No. 3365).
(§6) 1. The test compounds were dissolved in DMSO to make stock solutions and subjected to a series gradient dilution to give solutions with 10-fold working concentration.
(§7) 2. The cells in the logarithmic growth phase were diluted with the culture solution to adjust to the specific cell concentration, 90 μi of cell suspension was added to the 96-well plate to make the cell density reach the specified concentration. The plate was incubated in a incubator at 37° C., containing 5% carbon dioxide gas overnight.
(§8) 3. 10 μl drug solutions were added to each well of the 96-well plate inoculated with cells. 10 concentrations of the compounds were tested starting from the highest concentration of 20 μM with a 3-fold series gradient dilution in duplicate.
(§9) 4. After continuously cultured for 72 hours, the cells were detected by CellTiter-Glo for the cell viability. The dose-effect curve was made using GraphPad Prism software and IC50 was calculated.

BaF3 [EML4-ALK] [1] = molecular target: T1, BaF3 [EML4-ALK] (Homo sapiens, UniProt Q9UM73); assay: Cytotoxicity test (CellTiter-Glo), BaF3 [EML4-ALK]; type: cell-based; settings: 72 hours, CellTiter-Glo; read-out: IC50(nM) ALK (Ba/F3)
T1 construct: IC50(nM) ALK (Ba/F3); other: 72 hours, CellTiter-Glo; BaF3 [EML4-ALK]; fused on or other part: Q9HC35 (Echinoderm microtubule-associated protein-like 4)
Description: as §3, §4, §5, §6, §7, §8, §9

BaF3 [EML4-ALK] [2] = assay: Cytotoxicity test (CellTiter-Glo), BaF3 [EML4-ALK]; type: cell-based; settings: Ba/F3 cells
Description: as §3, §4, §5, §6, §7, §8, §9

ALK[L1196M] (Ba/F3) [3] = molecular target: T2, ALK[L1196M] (Ba/F3) (Homo sapiens, UniProt Q9UM73, L1196M, cells depend on it); assay: Cytotoxicity test (CellTiter-Glo), BaF3 EML4-ALK L1196M; type: cell-based; settings: 72 hours, CellTiter-Glo; read-out: IC50(nM) ALK[L1196M] (Ba/F3)
T2 construct: IC50(nM) ALK[L1196M]; (Ba/F3); other: 72 hours, CellTiter-Glo; BaF3 [EMF4-AFK F1196M]; fused on or other part: Q9HC35 (Echinoderm microtubule-associated protein-like 4)
Description: as §3, §4, §5, §6, §7, §8, §9

ALK[L1196M] (Ba/F3) [4] = assay: as above; type: cell-based; settings: Ba/F3 cells
Description: as §3, §4, §5, §6, §7, §8, §9

[5] = Metabolic stability in human liver microsomes; type: in vitro ADME; settings: pH 7.4, 1 μM compound, 0.5 mg/mL protein; for microsomal CLint at 1 μM: read-out: CLint (uL/min/mg), Human liver microsome experiment; for half-life at 1 μM: read-out: t1/2 (min), Human liver microsome experiment
Description: (§10) Experiments in microsomes: Human liver microsomes: 0.5 mg/mL, Xenotech; Rat liver microsomes: 0.5 mg/mL, Xenotech; Coenzyme (NADPH/NADH): 1 mM, Sigma Life Science; Magnesium chloride: 5 mM, 100 mM phosphate buffer (pH 7.4).
(§11) Preparation of stock solution: Powder of the example compounds was accurately weighed and dissolved in DMSO to 5 mM. Preparation of phosphate buffer (100 mM, pH7.4): A pre-formulated 0.5M potassium dihydrogen phosphate (150 mL) was mixed with 0.5M dibasic potassium phosphate (700 mL). The pH of the mixture was adjusted to 7.4 with 0.5M dibasic potassium phosphate solution. The mixture was diluted 5-fold with ultrapure water before use, and magnesium chloride was added to obtain a phosphate buffer (100 mM) containing 100 mM potassium phosphate, 3.3 mM magnesium chloride, pH7.4. A NADPH regeneration system solution (containing 6.5 mM NADP, 16.5 mM G-6-P, 3 U/mL G-6-PD, 3.3 mM magnesium chloride) was prepared and placed on wet ice prior to use. Preparation of stop solution: acetonitrile solution containing 50 ng/mL propranolol hydrochloride and 200 ng/mL tolbutamide (internal standard). 25057.5 μL of phosphate buffer (pH 7.4) was taken into a 50 mL centrifuge tube, to which 812.5 μL human liver microsomes were added, and mixed to obtain a liver microsome dilution solution with a protein concentration of 0.625 mg/mL. 25057.5 μL of phosphate buffer (pH 7.4) was taken into a 50 mL centrifuge tube, to which 812.5 μL SD rat liver microsomes were added, and mixed to obtain a liver microsome dilution solution with a protein concentration of 0.625 mg/mL.
(§12) Incubation of the samples: The stock solution of the respective compound was respectively diluted to 0.25 mM with an aqueous solution containing 70% acetonitrile, and used as a working solution, ready for use. 398 μL of the dilution solution of human liver microsomes or rat liver microsome were added to a 96-well incubation plate (N=2), respectively, and 2 μL of 0.25 mM working solution was added and mixed.
(§13) Metabolic stability assay: 300 μL of pre-chilled stop solution was added to each well of a 96-well deep well plate and placed on ice as a stop plate. The 96 well incubation plate and NADPH regeneration system were placed in a 37° C. water bath box, shaken at 100 rpm and pre-incubated for 5 min. 80 μL of incubation solution was taken out from each well of the incubation plate and added to the stop plate, mixed, and replenished with 20 μL of NADPH regeneration system solution as a 0-min sample. 80 μL of NADPH regeneration system solution was added to each well of the incubation plate to start the reaction and start counting. […] Separately, 100 μL of the reaction solution was taken at 10, 30, and 90 min reaction, respectively, added to a stop plate, and vortexed for 3 minutes to terminate the reaction. The stop plate was centrifuged at 5000×g at 4° C. for 4 min. 100 μL of the supernatant was added to a 96-well plate to which 100 μL of distilled water was previously added, mixed, and analyzed by LC-MS/MS.
(§14) Data analysis: The peak areas of the corresponding compound and internal standard were detected by LC-MS/MS system, and the ratio of the peak area of the compound to the internal standard was calculated.

[6] = Metabolic stability in rat liver microsomes; type: in vitro ADME; settings: SD, pH 7.4, 1 μM compound, 0.5 mg/mL protein; for microsomal CLint at 1 μM: read-out: CLint (uL/min/mg), Rat liver microsome experiment; for half-life at 1 μM: read-out: t1/2 (min), Rat liver microsome experiment
Description: as §10, §11, §12, §13, §14

T2 sequence (Q9UM73 whole entry L1196M, the tested form may be a part): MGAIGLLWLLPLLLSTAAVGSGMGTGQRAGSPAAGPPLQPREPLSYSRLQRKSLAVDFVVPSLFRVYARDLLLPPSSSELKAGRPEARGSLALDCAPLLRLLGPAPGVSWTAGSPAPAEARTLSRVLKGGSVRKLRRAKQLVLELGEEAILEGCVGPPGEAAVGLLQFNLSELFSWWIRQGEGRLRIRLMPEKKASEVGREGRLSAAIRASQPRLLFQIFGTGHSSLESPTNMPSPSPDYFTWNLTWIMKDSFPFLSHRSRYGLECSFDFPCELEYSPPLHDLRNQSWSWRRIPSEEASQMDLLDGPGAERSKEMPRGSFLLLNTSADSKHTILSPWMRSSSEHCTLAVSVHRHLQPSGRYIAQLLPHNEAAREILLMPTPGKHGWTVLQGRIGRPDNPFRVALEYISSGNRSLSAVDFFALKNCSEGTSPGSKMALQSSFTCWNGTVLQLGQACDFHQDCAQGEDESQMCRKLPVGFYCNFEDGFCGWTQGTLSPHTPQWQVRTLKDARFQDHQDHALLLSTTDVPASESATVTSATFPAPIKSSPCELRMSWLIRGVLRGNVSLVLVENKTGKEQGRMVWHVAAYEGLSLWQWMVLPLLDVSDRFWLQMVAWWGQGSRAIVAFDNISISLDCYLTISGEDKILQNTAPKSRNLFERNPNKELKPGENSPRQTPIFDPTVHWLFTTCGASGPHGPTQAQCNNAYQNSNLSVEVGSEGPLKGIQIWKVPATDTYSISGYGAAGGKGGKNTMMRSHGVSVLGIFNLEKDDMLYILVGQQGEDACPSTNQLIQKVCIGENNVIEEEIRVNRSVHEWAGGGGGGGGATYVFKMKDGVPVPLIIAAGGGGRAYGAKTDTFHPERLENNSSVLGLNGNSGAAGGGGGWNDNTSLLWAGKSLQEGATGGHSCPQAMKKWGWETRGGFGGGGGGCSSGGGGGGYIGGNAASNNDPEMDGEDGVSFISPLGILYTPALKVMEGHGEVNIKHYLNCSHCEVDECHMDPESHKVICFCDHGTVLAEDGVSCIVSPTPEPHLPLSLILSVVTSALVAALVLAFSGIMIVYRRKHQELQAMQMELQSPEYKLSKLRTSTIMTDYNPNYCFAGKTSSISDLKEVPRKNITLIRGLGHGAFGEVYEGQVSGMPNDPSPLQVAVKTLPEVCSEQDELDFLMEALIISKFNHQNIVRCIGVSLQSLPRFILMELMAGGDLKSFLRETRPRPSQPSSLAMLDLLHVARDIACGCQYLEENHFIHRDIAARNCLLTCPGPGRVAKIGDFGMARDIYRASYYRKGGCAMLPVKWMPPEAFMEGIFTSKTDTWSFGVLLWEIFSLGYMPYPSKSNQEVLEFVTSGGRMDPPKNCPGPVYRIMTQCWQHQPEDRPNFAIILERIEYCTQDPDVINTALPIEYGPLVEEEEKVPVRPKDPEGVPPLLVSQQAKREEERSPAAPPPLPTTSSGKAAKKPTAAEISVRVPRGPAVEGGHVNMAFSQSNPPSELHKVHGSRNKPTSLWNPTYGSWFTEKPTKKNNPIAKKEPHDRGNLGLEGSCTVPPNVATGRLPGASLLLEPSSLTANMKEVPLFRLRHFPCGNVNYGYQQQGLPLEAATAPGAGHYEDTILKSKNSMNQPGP
ALK [L1196M], sequence (Q9UM73 19-1620 L1196M): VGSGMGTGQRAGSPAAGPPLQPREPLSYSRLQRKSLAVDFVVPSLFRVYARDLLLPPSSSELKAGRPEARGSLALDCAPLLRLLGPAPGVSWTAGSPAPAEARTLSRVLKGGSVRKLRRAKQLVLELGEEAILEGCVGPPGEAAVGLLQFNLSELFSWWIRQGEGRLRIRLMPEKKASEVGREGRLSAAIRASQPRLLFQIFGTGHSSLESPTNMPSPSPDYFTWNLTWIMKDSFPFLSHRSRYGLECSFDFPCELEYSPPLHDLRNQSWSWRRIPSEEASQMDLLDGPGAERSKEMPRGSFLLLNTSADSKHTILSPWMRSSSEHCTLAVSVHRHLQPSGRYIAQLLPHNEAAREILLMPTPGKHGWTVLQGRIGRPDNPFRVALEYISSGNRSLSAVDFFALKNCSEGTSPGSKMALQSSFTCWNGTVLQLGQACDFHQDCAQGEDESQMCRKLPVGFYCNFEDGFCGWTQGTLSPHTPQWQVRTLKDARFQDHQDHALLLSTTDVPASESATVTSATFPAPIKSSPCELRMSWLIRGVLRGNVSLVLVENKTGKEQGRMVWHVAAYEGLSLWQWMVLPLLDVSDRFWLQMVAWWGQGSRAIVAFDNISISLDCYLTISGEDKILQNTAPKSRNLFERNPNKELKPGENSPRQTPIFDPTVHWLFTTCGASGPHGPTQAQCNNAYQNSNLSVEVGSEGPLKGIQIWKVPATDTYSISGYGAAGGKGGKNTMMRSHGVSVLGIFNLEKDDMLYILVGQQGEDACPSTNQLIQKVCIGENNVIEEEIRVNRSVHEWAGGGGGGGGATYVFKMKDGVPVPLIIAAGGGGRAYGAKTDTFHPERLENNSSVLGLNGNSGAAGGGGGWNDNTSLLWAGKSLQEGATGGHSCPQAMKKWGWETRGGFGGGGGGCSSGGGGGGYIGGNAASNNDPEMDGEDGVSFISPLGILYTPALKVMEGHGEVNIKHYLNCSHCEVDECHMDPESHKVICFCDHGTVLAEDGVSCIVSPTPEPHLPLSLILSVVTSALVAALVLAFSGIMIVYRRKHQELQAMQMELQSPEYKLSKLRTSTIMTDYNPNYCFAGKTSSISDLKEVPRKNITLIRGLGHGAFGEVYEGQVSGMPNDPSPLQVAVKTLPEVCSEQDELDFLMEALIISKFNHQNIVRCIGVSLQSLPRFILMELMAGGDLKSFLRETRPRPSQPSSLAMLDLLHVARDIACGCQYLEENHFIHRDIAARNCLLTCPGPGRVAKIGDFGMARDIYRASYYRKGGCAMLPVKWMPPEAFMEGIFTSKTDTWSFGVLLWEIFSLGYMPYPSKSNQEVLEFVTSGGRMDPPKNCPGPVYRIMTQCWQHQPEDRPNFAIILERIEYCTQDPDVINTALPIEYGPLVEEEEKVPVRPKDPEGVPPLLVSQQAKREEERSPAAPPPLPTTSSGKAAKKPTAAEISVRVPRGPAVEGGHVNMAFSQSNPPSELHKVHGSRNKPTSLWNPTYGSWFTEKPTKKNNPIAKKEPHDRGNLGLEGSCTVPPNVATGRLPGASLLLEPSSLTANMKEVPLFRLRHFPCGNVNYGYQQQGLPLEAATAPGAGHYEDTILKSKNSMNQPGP
T1 sequence (Q9UM73 whole entry, change not shown, the tested form may be a part): as the sequence (Q9UM73 whole entry L1196M, the tested form may be a part) above, with M1196L counted along it
ALK [WT], sequence (Q9UM73 19-1620): as the sequence (Q9UM73 19-1620 L1196M) above, with M1178L counted along it
ALK G1202R, sequence (Q9UM73 19-1620 G1202R): as the sequence (Q9UM73 19-1620 L1196M) above, with M1178L, G1184R counted along it

| SMILES | IC50 (ALK [WT]) | IC50 (ALK [L1196M]) | microsomal CLint at 1 μM [5] | half-life at 1 μM [5] | microsomal CLint at 1 μM [6] | half-life at 1 μM [6] | effect on F1174C/V (ALK F1174C/V) | effect on G1202R (ALK G1202R) | IC50 (BaF3 parental) | GI50 (BaF3 [EML4-ALK] [1]) | Selectivity parental/ALK (BaF3 [EML4-ALK] [2]) | GI50 (ALK[L1196M] (Ba/F3) [3]) | Selectivity parental/ALK[L1196M] (ALK[L1196M] (Ba/F3) [4]) |
| --- | --- | --- | --- | --- | --- | --- | --- | --- | --- | --- | --- | --- | --- |
| Cc1cc(Nc2ncc(Cl)c(Nc3ccccc3S(=O)(=O)C(C)C)n2)c(OC(C)C)cc1C1CCNCC1 [Ceritinib] | – | – | – | – | – | – | no effect | neither of them has effect | – | – | – | – | – |
| CNC(C)(C)c1ccc(Nc2ncc(Cl)c(Nc3ccccc3P(C)(C)=O)n2)c(OC)c1 [Example 15, (2-((5-chloro-2-((2-methoxy-4-(2-(methylamino)propan-2-yl)phenyl)amino)pyrimidin-4-yl)amino)phenyl)dimethylphosphine oxide] | ≤ 2 nM | ≤ 2 nM | 20.7 µL/min/mg | 66.9 min | 17.6 µL/min/mg | 78.8 min | – | – | ≥ 1000 nM | 50 to 100 nM | <50 | 100 to 200 nM | <50 |
| COc1cc(C(C)CN)ccc1Nc1ncc(Cl)c(Nc2ccccc2P(C)(C)=O)n1 (stereo not drawn) [Example 16, (2-((2-((4-(1-aminopropan-2-yl)-2-methoxyphenyl)amino)-5-chloropyrimidin-4-yl)amino)phenyl)dimethylphosphine oxide] | 5 to 10 nM | 5 to 10 nM | 21.5 µL/min/mg | 64.6 min | 11.7 µL/min/mg | 118 min | – | – | ≥ 1000 nM | 200 to 1000 nM | 50 to 100 | 200 to 1000 nM | <50 |
| COc1cc(C(C)CN(C)C)ccc1Nc1ncc(Cl)c(Nc2ccccc2P(C)(C)=O)n1 (stereo not drawn) [Example 17, (2-((5-chloro-2-((4-(1-(dimethylamino)propan-2-yl)-2-methoxyphenyl)amino)pyrimidin-4-yl)amino)phenyl)dimethylphosphine oxide] | 5 to 10 nM | 5 to 10 nM | 18.6 µL/min/mg | 74.3 min | 29.7 µL/min/mg | 46.7 min | – | – | ≥ 1000 nM | 25 to 50 nM | 100 to 200 | 100 to 200 nM | 50 to 100 |

The next lines start with results.

| IC50 (ALK [WT]) | IC50 (ALK [L1196M]) | microsomal CLint at 1 μM [5] | half-life at 1 μM [5] | microsomal CLint at 1 μM [6] | half-life at 1 μM [6] | SMILES | effect on F1174C/V (ALK F1174C/V) | effect on G1202R (ALK G1202R) | IC50 (BaF3 parental) | GI50 (BaF3 [EML4-ALK] [1]) | Selectivity parental/ALK (BaF3 [EML4-ALK] [2]) | GI50 (ALK[L1196M] (Ba/F3) [3]) | Selectivity parental/ALK[L1196M] (ALK[L1196M] (Ba/F3) [4]) |
| --- | --- | --- | --- | --- | --- | --- | --- | --- | --- | --- | --- | --- | --- |
| 2 to 5 nM | 2 to 5 nM | 5.4 µL/min/mg | 259 min | 32.3 µL/min/mg | 42.9 min | COc1cc(CCN(C)C)c(C)cc1Nc1ncc(Cl)c(Nc2ccccc2P(C)(C)=O)n1 [Example 20, (2-((5-chloro-2-((4-(2-(dimethylamino)ethyl)-2-methoxy-5-methylphenyl)amino)pyrimidin-4-yl)amino)phenyl)dimethylphosphine oxide] | – | – | ≥ 1000 nM | 25 to 50 nM | 50 to 100 | 25 to 50 nM | 50 to 100 |
| 2 to 5 nM | 5 to 10 nM | 27.7 µL/min/mg | 50 min | 7.2 µL/min/mg | 193 min | CNCCc1cc(OC)c(Nc2ncc(Cl)c(Nc3ccccc3P(C)(C)=O)n2)cc1C [Example 21, (2-((5-chloro-2-((2-methoxy-5-methyl-4-(2-(methylamino)ethyl)phenyl)amino)pyrimidin-4-yl)amino)phenyl)dimethylphosphine oxide] | – | – | ≥ 1000 nM | 100 to 200 nM | <50 | 200 to 1000 nM | <50 |
